The subject of one data set is Bacillus cereus. The experiment in a line: Rapid liquid phase drug sensitivity test, enrichment rate by real-time PCR (e-DNAP, non-display method). The data set is classed as cell-based. As to conditions: 10 μg/mL; four hours after culture; enrichment rate without antibiotic agent defined as 100%. How it is done:
(§1) In current drug sensitivity tests, it generally takes several days to obtain results. However, when the highly sensitive quantification method in accordance with the present invention is applied, results can be obtained in only four to six hours. […] Accordingly, a sensitive test must be started once culture was carried out, so that it takes at least one day to obtain a result. An equal amount of each sample (for example, blood of septicemia) was infused into a liquid medium (BHI: Brain Heart Infusion), each sample medium was collected before culture, two hours after the culture, and four hours after the culture under the condition in which an antibiotic agent was added or not added, cells were subjected to centrifugation and pelletizing so as to obtain DNA, respectively. Furthermore, it is desirable that extraction of DNA is carried out by using an automatic nucleic acid extraction device. A real-time PCR reagent for detecting bacteria, conditions and the primer constitution were the same as in Example 2. When calculation is carried out when the quantification result before culture is defined as 0 and the quantification result two hours after and four hours after culture in which an antibiotic agent was not added is respectively defined as 100 (an enrichment rate when an antibiotic agent was not added is defined as 100%), the enrichment rate was calculated two hours after and four hours after the culture in which an antibiotic agent was added. For example, the amount of bacteria/fungi before culture is […], the amount of bacteria two hours after culture in which an antibiotic agent is not added is […], and the amount two hours after culture in which an antibiotic agent is added is […], the enrichment rate two hours after an antibiotic agent is added can be calculated by the following formula: Enrichment rate two hours after an antibiotic agent is added=[…])×100 (%) Alternatively, instead of comparing the enrichment rates, the amounts […] be compared directly. […]
(In general: Real-time PCR tracks product formation cycle by cycle.)

Data set [1] deals with Staphylococcus epidermidis. The experiment in a line: Rapid liquid phase drug sensitivity test, bacteria quantified by real-time PCR (e-DNAP, non-display method). Format: cell-based. As to conditions: 10 μg/mL; two hours and four hours after culture. On the procedure:
as §1, with “An equal amount of each sample (for example, blood of septicemia) was infused into a liquid medium (BHI: Brain Heart Infusion), each sample medium was collected before culture, two hours after the culture, and four hours after the culture under the condition in which an antibiotic agent was added or not added, cells were subjected to centrifugation and pelletizing so as to obtain DNA, respectively. Furthermore, it is desirable that extraction of DNA is carried out by using an automatic nucleic acid extraction device. A real-time PCR reagent for detecting bacteria, conditions and the primer constitution were the same as in Example 2.” left out

Data set [2] deals with bacterial 16S rRNA-derived gene. The experiment in a line: Amplification curve and melting curve analysis by real-time PCR (contamination of non-specific nucleic acid). As to conditions: real-time PCR 60 cycles; template not added. Further details: species or system Escherichia coli. On the procedure:
In order to investigate contamination of non-specific nucleic acid in the above-mentioned thermostable DNA polymerase preparations, analyses of an amplification curve and a melting curve were carried out by using real-time PCR. FIGS. 5(A) and FIG. 5(B) show analysis of amplification curves. FIGS. 6(A) and FIG. 6(B) show analysis of melting curves. Furthermore, FIG. 5(A) and FIG. 6(A) are graphs showing analysis carried out by using thermostable DNA polymerase preparation produced by using AmpliTaq Gold LD as a host. FIG. 5(B) and FIG. 6(B) are graphs showing analysis carried out by using thermostable DNA polymerase preparation produced by using S. cerevisiae as a host. Solid lines show a case in which Escherichia coli was added as a template, and broken lines show a case in which a template was not added. As the real-time PCR reagent, ×10 Buffer was obtained by adding 10 μl of ultrapure water into a 1b tube of LightCycler FastStart DNA Master SYBR GreenI (Roche). In this tube, dNTPs and SYBR GreenI in addition to a buffer reagent optimized for the Taq DNA polymerase are contained. […]

`CC1(C)S[C@@H]2[C@H](NC(=O)[C@H](N)c3ccccc3)C(=O)N2[C@H]1C(=O)O` [ampicillin]: in the data set on Bacillus cereus, the enrichment rate turned out to be 0%. Still for that read-out and setting: the figure for `Cc1nnc(SCC2=C(C(=O)O)N3C(=O)[C@@H](NC(=O)Cn4cnnn4)[C@H]3SC2)s1` [cefazolin] is 16%. Regarding `CC[C@H]1OC(=O)[C@H](C)[C@@H](O[C@H]2C[C@@](C)(OC)[C@@H](O)[C@H](C)O2)[C@H](C)[C@@H](O[C@@H]2O[C@H](C)C[C@H](N(C)C)[C@H]2O)[C@](C)(O)C[C@@H](C)C(=O)[C@H](C)[C@@H](O)[C@]1(C)O` [erythromycin], the enrichment rate in the data set with Bacillus cereus was 76%. Besides, the “drug sensitivity (comparison of amount of bacteria itself)” value in data set [1] is listed as “sensitivity to EM was observed”.

For “AmpliTaq Gold LD: commercial thermostable DNA polymerase preparation (ABI), produced in bacteria and purified to minimize bacterial DNA”, in data set [2], the “contamination of non-specific nucleic acid in amplification curve and melting curve” value is given as “contamination of non-specific nucleic acid was observed”. With gentamicin, the “drug sensitivity (comparison of amount of bacteria itself)” value in data set [1] was “sensitivity to GM was not observed”.
